target: GST-tagged truncated human mutant G2019S LRRK2 (Homo sapiens (Human), UniProt Q5S007, G2019S); test: LRRK2 G2019S Km ATP LanthaScreen assay; format: biochemical; settings: G2019S LRRK2, 134 μM ATP (Km ATP), LRRKtide substrate
Summary of the method: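 Ten-point compound series (highest 9.99 μM in DMSO) preincubated 15 min with 1.25 nM GST-tagged truncated human LRRK2 G2019S, then 90 min reaction at ambient temperature with 134 μM ATP (Km) and fluorescein-labelled LRRKtide, pH 8.5. Phosphorylation read as 520/495 nm emission ratio via Tb-labelled antibody; IC50 from 4P logistic regression.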

Sequence of GST-tagged truncated human mutant G2019S LRRK2 (Q5S007 970-2527 G2019S): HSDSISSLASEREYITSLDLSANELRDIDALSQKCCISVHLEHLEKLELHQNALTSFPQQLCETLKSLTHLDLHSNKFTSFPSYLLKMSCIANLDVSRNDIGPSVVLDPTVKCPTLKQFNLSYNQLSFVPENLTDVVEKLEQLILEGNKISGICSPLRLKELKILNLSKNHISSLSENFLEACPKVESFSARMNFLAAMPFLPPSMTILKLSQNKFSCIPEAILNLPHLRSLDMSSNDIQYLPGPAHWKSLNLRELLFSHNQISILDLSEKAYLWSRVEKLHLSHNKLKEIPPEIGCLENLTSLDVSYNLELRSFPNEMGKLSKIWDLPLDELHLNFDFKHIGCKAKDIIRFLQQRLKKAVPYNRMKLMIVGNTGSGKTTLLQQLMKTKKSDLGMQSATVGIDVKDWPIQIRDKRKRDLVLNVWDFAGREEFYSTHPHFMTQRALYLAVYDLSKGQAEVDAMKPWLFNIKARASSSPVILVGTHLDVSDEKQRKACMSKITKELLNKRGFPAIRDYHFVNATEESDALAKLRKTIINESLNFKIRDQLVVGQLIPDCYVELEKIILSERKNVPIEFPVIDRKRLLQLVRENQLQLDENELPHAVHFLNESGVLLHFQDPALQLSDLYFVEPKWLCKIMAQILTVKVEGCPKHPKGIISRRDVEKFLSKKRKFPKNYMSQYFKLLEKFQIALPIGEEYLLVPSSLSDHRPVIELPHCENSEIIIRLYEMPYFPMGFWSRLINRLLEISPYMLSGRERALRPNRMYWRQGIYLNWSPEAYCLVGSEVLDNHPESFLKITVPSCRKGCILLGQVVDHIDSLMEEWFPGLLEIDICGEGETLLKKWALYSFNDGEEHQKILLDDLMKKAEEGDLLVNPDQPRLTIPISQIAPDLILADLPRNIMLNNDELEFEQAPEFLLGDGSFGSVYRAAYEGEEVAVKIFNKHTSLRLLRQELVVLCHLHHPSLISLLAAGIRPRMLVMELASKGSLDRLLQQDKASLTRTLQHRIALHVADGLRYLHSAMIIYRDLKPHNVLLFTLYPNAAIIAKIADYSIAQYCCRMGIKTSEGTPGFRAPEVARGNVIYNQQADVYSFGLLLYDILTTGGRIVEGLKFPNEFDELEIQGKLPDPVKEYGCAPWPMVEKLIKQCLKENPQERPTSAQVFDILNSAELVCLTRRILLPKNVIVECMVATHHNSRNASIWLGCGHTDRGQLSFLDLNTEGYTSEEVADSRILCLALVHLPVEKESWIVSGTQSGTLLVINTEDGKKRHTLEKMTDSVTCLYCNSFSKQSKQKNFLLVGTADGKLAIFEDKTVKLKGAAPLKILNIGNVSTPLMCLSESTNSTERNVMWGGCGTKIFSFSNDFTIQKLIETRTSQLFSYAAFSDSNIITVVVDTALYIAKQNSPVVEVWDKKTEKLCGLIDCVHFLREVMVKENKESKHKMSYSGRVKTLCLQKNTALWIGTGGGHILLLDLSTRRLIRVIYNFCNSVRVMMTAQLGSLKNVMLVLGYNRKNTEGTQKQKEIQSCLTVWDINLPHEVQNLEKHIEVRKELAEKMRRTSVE

Compound	LRRK2 pIC50
Cc1nn(C2CCC2)c2c1OC[C@H]1COC[C@@H]1Nc1nc(ncc1C(F)(F)F)N2 (single isomer, unassigned) [Ex-2.26, (10aS,13aS)- or (10aR,13aR)-3-cyclobutyl-1-methyl-8-(trifluoromethyl)-3,4,10a,11,13a, 14-hexahydro-10H,13H-5,9-(azeno)furo[3,4-k]pyrazolo[4,3-b][1]oxa[4,6,10]triazacyclotridecine]	6.77
FC(F)(F)c1cnc2nc1NC1CCC1COc1c(C3COC3)nn(C3CCC3)c1N2 [Ex-2.71, (10aR,12aR)- or (10aS,12aS)-3-cyclobutyl-1-(oxetan-3-yl)-8-(trifluoromethyl)-3,4,10,10a,11,12,12a,13-octahydro-5,9-(azeno)cyclobuta[k]pyrazolo[4,3-b][1]oxa[4,6,10]triazacyclotridecine]	8.24
Cc1nn(C2CCC2)c2c1OC[C@@H]1CC(F)(F)C[C@H]1Nc1nc(ncc1C(F)(F)F)N2 [Ex-4.2, 3-Cyclobutyl-12,12-difluoro-1-methyl-8-(trifluoromethyl)-3,4,10a,11,12,13,13a,14-octahydro-10H-5,9-(azeno)cyclopenta[k]pyrazolo[4,3-b][1]oxa[4,6,10]triazacyclotridecine]	9.51
COC1CC(n2nc(C)c3c2Nc2ncc(Cl)c(n2)N[C@@H]2CC[C@H]2CO3)C1 (stereo partly drawn) [Ex-2.77, (10aR,12aR)-8-chloro-3-(3-methoxycyclobutyl)-1-methyl-3,4,10,10a,11,12,12a,13-octahydro-5,9-(azeno)cyclobuta[k]pyrazolo[4,3-b][1]oxa[4,6,10]triazacyclotridecine]	>10.09
C=CCn1nc(C)c2c1Nc1ncc(C(F)(F)F)c(n1)N[C@@H]1COC[C@H]1CO2 [Ex-5.3, (10aS,13aS)-3-allyl-1-methyl-8-(trifluoromethyl)-3,4,10a,11,13a,14-hexahydro-10H,13H-5,9-(azeno)furo[3,4-k]pyrazolo[4,3-b][1]oxa[4,6,10]triazacyclotridecine]	7.30
COC1CC(n2nc(C)c3c2Nc2ncc(C(F)(F)F)c(n2)N[C@@H]2CC[C@H]2CO3)C1 (stereo partly drawn) [Ex-2.78, (10aR,12aR)-3-(3-methoxycyclobutyl)-1-methyl-8-(trifluoromethyl)-3,4,10,10a,11,12,12a,13-octahydro-5,9-(azeno)cyclobuta[k]pyrazolo[4,3-b][1]oxa[4,6,10]triazacyclotridecine]	>10.09
Cc1nn(C2CCC2)c2c1OC[C@H]1CC(F)(F)C[C@@H]1Nc1nc(ncc1C(F)(F)F)N2 [Ex-4.1, 3-Cyclobutyl-12,12-difluoro-1-methyl-8-(trifluoromethyl)-3,4,10a,11,12,13,13a,14-octahydro-10H-5,9-(azeno)cyclopenta[k]pyrazolo[4,3-b][1]oxa[4,6,10]triazacyclotridecine]	6.25
CC1CCOc2c(C(C)(C)C#N)nn(C3CCC3)c2Nc2ncc(C(F)(F)F)c(n2)N1 (single isomer, unassigned) [Ex-2.29, (R)- or (S)-butyl-7-methyl-10-(trifluoromethyl)-1,5,6,7,8,14-hexahydro-9,13-(azeno)pyrazolo[4,3-b][1]oxa[4,6,10]triazacyclotridecin-3-yl)-2-methylpropanenitrile]	5.70
Cc1nn(C2CCC2)c2c1OC[C@@H]1CC[C@H]1Nc1cc(ncc1F)N2 [Ex-13.7, (10aR,12aR)-3-cyclobutyl-8-fluoro-1-methyl-3,4,10,10a,11,12,12a,13-octahydro-5,9-(metheno)cyclobuta[k]pyrazolo[4,3-b][1]oxa[4,6,10]triazacyclotridecine]	5.02
O[C@H]1CC[C@@H]1n1nc(C2CC2)c2c1OC[C@@H]1COC[C@H]1Nc1nc(ncc1C(F)(F)F)N2 (single isomer, unassigned) [Ex-6.8, (1R,2R)- or (1S,2S)-2-((10aS,13aS)-3-cyclopropyl-8-(trifluoromethyl)-10a,11,13a,14-tetrahydro-10H,13H-5,9-(azeno)furo[3,4-k]pyrazolo[3,4-b][1]oxa[4,6,10]triazacyclotridecin-1(4H)-yl)cyclobutan-1-ol]	>10.09
CC(C)c1nn(C(C)(C)C#N)c2c1Nc1ncc(C3CC3)c(n1)N[C@@H]1COC[C@H]1CO2 [Ex-1.15, 2-((10aS,13aS)-8-cyclopropyl-3-isopropyl-10a,11,13a,14-tetrahydro-10H,13H-5,9-(azeno)furo[3,4-k]pyrazolo[3,4-b][1]oxa[4,6,10]triazacyclotridecin-1(4H)-yl)-2-methylpropanenitrile]	8.27
FC(F)(F)c1cnc2nc1N[C@@H]1COC[C@H]1COc1cccc(Br)c1N2 [Ex-15.4, (3aS,16aS)-11-bromo-6-(trifluoromethyl)-3a,4,16,16a-tetrahydro-1H,3H,10H-5,9-(azeno)benzo[b]furo[3,4-k][1]oxa[4,6,10]triazacyclotridecine]	9.12
Cc1nn(C(C)(C)C#N)c2c1Nc1ncc(C(F)(F)F)c(n1)N[C@@H]1CCC1CO2 (stereo partly drawn) [Ex-1.1, 2-Methyl-2-((10aR,12aR)-3-methyl-8-(trifluoromethyl)-10,10a,11,12,12a,13-hexahydro-5,9-(azeno)cyclobuta[k]pyrazolo[3,4-b][1]oxa[4,6,10]triazacyclotridecin-1 (4H)-yl)propanenitrile]	>10.09
CC(C)c1nn(C(C)(C)C#N)c2c1Nc1ncc(Cl)c(n1)N[C@@H]1COC[C@H]1CO2 [Ex-1.16, 2-((10aS,13aS)-8-chloro-3-isopropyl-10a,11,13a,14-tetrahydro-10H,13H-5,9-(azeno)furo[3,4-k]pyrazolo[3,4-b][1]oxa[4,6,10]triazacyclotridecin-1(4H)-yl)-2-methylpropanenitrile]	9.76
Cc1nn(C2CCC2)c2c1OC1COC[C@H]1CNc1nc(ncc1C(F)(F)F)N2 (stereo partly drawn) [Ex-2.80, (11aR,14aR)-3-cyclobutyl-1-methyl-8-(trifluoromethyl)-3,4,10,11,11a,12,14,14a-octahydro-5,9-(azeno)furo[3,4-1]pyrazolo [4,3-b][1]oxa[4,6,10]triazacyclotridecine (11aS,14aS)-3-cyclobutyl-1-methyl-8-(trifluoromethyl)-3,4,10,11,11a,12,14,14a-octahydro-5,9-(azeno)furo[3,4-1]pyrazolo[4,3-b][1]oxa[4,6,10]triazacyclotridecine]	7.57
Cc1nn(C2CCC2)c2c1CC[C@@H]1COC[C@H]1Nc1nc(ncc1C(F)(F)F)N2 (single isomer, unassigned) [Ex-12.1, (10aS,13aS)- or (10aR,13aR)-3-Cyclobutyl-1-methyl-8-(trifluoromethyl)-3,4,10a,11,13,13a,14,15-octahydro-10H-5,9-(azeno)furo[3,4-h]pyrazolo[4,3-l][1,3,7]triazacyclotridecine]	>10.09
CC(C)n1nc(C2CC2)c2c1Nc1ncc(C(F)(F)F)c(n1)N[C@@H]1COC[C@H]1CO2 [Ex-2.57, (10aS,13aS)-1-cyclopropyl-3-isopropyl-8-(trifluoromethyl)-3,4,10a,11,13a,14-hexahydro-10H,13H-5,9-(azeno)furo[3,4-k]pyrazolo[4,3-b][1]oxa[4,6,10]triazacyclotridecine]	9.98
Cn1cc(C2CC2c2nn(C3CCC3)c3c2OC[C@@H]2COC[C@H]2Nc2nc(ncc2C(F)(F)F)N3)cn1 (stereo partly drawn) [Ex-2.70, (10aS,13aS)-3-cyclobutyl-1-((1S,2S)- or (10aS,13aS)-3-cyclobutyl-1-((IR,2R)-2-(1-methyl-1H-pyrazol-4-yl)cyclopropyl)-8-(trifluoromethyl)-3,4,10a,11,13a,14-hexahydro-10H,13H-5,9-(azeno)furo[3,4-k]pyrazolo[4,3-b][1]oxa[4,6,10]triazacyclotridecine]	9.35
CC(C)n1nc(CO)c2c1Nc1ncc(C(F)(F)F)c(n1)N[C@@H]1CC[C@H]1CO2 [Ex-6.5, ((10aR,12aR)-3-isopropyl-8-(trifluoromethyl)-3,4,10,10a,11,12,12a,13-octahydro-5,9-(azeno)cyclobuta[k]pyrazolo[4,3-b][1]oxa[4,6,10]triazacyclotridecin-1-yl)methanol]	>10.09
Cc1nn(C)c2c1OCC1(CNc3nc(ncc3C(F)(F)F)N2)CC12CCOCC2 (single isomer, unassigned) [Ex-2.16, (R)- or (S)-1″,3″-dimethyl-10″- (trifluoromethyl)-1″,2,3,5,6,7″,8″,14″. octahydro-5″H-dispiro[pyran-4,1′-cyclopropane-2′,6″- [9,13](azeno)pyrazolo[4,3-b][1]oxa[4,6,10]triazacyclotridecine]]	7.93

same assay, conditions: G2019S LRRK2, 134 μM ATP (Km ATP), LRRKtide substrate; read-out: LRRK2 pIC50 (converted)

Compound	IC50
COC1CC(n2nc(C)c3c2Nc2ncc(C(F)(F)F)c(n2)NC2COCC2CO3)C1 (single isomer, unassigned) [Ex-2.32, (10aS,13aS)- or (10aR,13aR)-3-((1R,3S)-3-methoxycyclobutyl)-1-methyl-8-(trifluoromethyl)-3,4,10a,11,13a,14-hexahydro-10H,13H-5,9-(azeno)furo[3,4-k]pyrazolo[4,3-b][1]oxa[4,6,10]triazacyclotridecine]	0.0912 nM
Cc1nn(C2CCC2)c2c1CC[C@@H]1COC[C@H]1Nc1nc(ncc1C(F)(F)F)N2 (single isomer, unassigned) [Ex-12.2, (10aS,13aS)- or (10aR,13aR)-3-Cyclobutyl-1-methyl-8-(trifluoromethyl)-3,4,10a,11,13,13a,14,15-octahydro-10H-5,9-(azeno)furo[3,4-h]pyrazolo[4,3-l][1,3,7]triazacyclotridecine]	0.24 nM

— patent US20250313575A1, “MACROCYCLES AS LRRK2 INHIBITORS, PHARMACEUTICAL COMPOSITIONS, AND USES THEREOF” (Merck Sharp & Dohme LLC, priority 2022, published 2025)
